Source: patent US20090162495A1, “Derivatives of Di-Carbonyl Aromachemicals” (FLEXITRAL INC, priority 2005, published 2009)

What was measured:
[1] = water solubility of the adduct; type: physicochemical; settings: water-soluble salt, e.g. alkali metal (sodium) salt
Text: (§1) Diacetyl is known to form an adduct with sodium hydrogen sulfite [2-butanesulfonic acid, 2-hydroxy-3-oxo-, monosodium salt—CAS 13489-36-6]. See also French patent 2,845,903. This adduct is in equilibrium with the starting materials and, in practice, releases small amounts of diacetyl and sulfite continuously. The above-mentioned French patent discloses that the adduct is useful in hair care products as a straightening agent. The vapor pressure of the diacetyl adduct is negligible, thereby resulting in little or no odor. It is usually obtained and used in the form of a water-soluble salt, such as, e.g., an alkali metal (sodium) salt. Since it is water soluble, it can therefore be sprayed directly onto foodstuffs safely. The flavor imparted by the adduct is dominated by diacetyl, since at low concentrations, the sulfite taste and flavor is imperceptible.

[2] = vapor pressure of the adduct; type: physicochemical; settings: resulting in little or no odor
Text: as §1

CC(=O)C(C)(O)S(=O)(=O)[O-].[Na+] (centres unmarked) [diacetyl adduct, 2-butanesulfonic acid, 2-hydroxy-3-oxo-, monosodium salt]
water solubility [1]: water soluble
vapor pressure [2]: negligible
